Experimental data reported in patent US10106532B2, “Inhibitors of beta-hydroxylase for treatment of cancer” (MIDWESTERN UNIVERSITY, priority 2012, dated 2018).
Entries after “also recorded” stand apart in the source; their conditions may differ.

Tests used:
[1] = test system: HPAFH AsPC-1 human PC cell line; test: subcutaneous pancreatic cancer tumor growth in nude mice; type: in vivo
Experimental: FIG. 4A is a line graph showing tumor volume, and FIG. 4B is a bar graph showing tomor weight. […] There were 15 nude mice in each group. i.p. injection (20 mg/kg/mouse). Vertical bars; standard error.
The HPAFH AsPC-1 human PC cell line which expresses a high level of ASPH was implanted (5×10^6 cells s.c.) into the back of nude mice. Tumors were allowed to grow to approximately 100 mm^3 after one week, and MO-1-1100 was then administered intraperitoneal (i.p.) at a concentration of 50 mg/kg. The treatment regimen as shown in FIGS. 4A-B included i.p. injections on a daily basis for five days followed by every other day until the experiment was terminated due to the large size of tumors observed in the control group that received a DMSO vehicle injection. […] There were 15 nude mice in each group (control vs. treatment).

FOCUS cells [2] = test: MTT assay (cell proliferation, metabolic activity); type: cell-based, human; settings: 24 hours
Experimental: (§1) A MTT assay was performed to evaluate the effect of MO-1-1100 on cell proliferation and viability. MTT is reduced to purple formazan in living cells. FOCUS cells were used as a high ASPH expressing human HCC cell line. […] The MTT assay measures cellular metabolic activity via NAD(P)H-dependent cellular oxidoreductase enzymes. […] In order to evaluate the effect of long-term exposure of MO-1-1100, the colony formation assay (an assay of malignant potential and phenotype) in which cells were treated with inhibitor for 3 weeks was performed.

NIH-3T3 cells = test: MTT assay (cell proliferation, metabolic activity); type: cell-based, mouse
Experimental: as §1

FOCUS = test: cell viability; type: cell-based, human; settings: 5 μM
Experimental: as §1

Huh7 = test: cell viability; type: cell-based, human; settings: 5 μM
FOCUS HCC cells = test: colony formation assay; type: cell-based, human; settings: 5 μM
Experimental: as §1

FOCUS cells [3] = test: anchorage independent growth in soft agar; type: cell-based, human; settings: 3 weeks of culture
Experimental: The effect of MO-1-1100 on anchorage independent growth in soft agar was evaluated. The ability of forming colonosphere in soft agar is considered to be a rigid test for tumorigenic potential. ASPH expression results in cells acquiring the ability to form colonospheres in soft agar. […] In order to evaluate the effect of ASPH inhibitor for anchorage independent colony formation, FOCUS cells were incubated in soft agar with or without this ASPH enzymatic inhibitor. After 3 weeks incubation, MO-1-1100 reduced colonosphere formation of FOCUS cells (FIG. 9A). […] This assay is a standard method to monitor malignant growth that reflects the ability to form tumors that grow aggressively in vivo.

FOCUS cells [4] = test: invasion assay using matrigel coated membrane; type: cell-based, human; settings: 6 hours, compared to DMSO control
Experimental: The β-hydroxylase activity is required for ASPH to mediate its effects on cell motility. Directional motility was measured using Boyden chamber-type culture inserts equipped with porous membranes. FOCUS cells were pretreated with 5 μM of MO-1-1100 and MO-1-500 β-hydroxylase inhibitor for 24 hours, and then placed into the upper chamber. Migration was allowed to proceed for 30 min. ATPLite was used to quantify viable cell density. The cells in the upper well and upper surface of membrane reflects the number of non-migrating cells, luminescence measured at the bottom surface of the membrane reflects the number of migrating and non-adherent cells and luminescence measured in the bottom well was reflect migrating and non-adherent cells. […] Cell invasiveness was assessed by invasion assay using matrigel coated membrane, in which cells were allowed to proceed for 6 hours; those found adhered on the bottom surface of membrane were regarded as invading cells.

[5] = test system: human HCC cell line FOCUS; test: subcutaneous xenograft of human hepatocellular carcinoma; type: in vivo, mouse; settings: 20 mg/kg per day
Experimental: The human HCC cell line FOCUS is known to be a highly aggressive tumor forming cell line in vivo. To investigate in vivo anti-tumor efficacy of the ASPH inhibitor, MO-1-1100 at 20 mg/kg per day was administered on 5 consecutive days for 2 weeks and every other day thereafter. […] Such findings indicate that any ASPH expressing human tumor are responsive to these specific β-hydroxylase inhibitors. These ASPH inhibitor compounds represent a class of anti-tumor agents that has substantial anti-tumor activity against a large number of solid human tumors known to have a dismal prognosis.

In the case of `NC1=C(OS(=O)(=O)Cc2ccccc2)C(=O)C(c2ccc(Cl)cc2)O1` (racemic) [MO-1-1100], the “HPAFH tumor formation, growth rate” value ([1]; i.p. 50 mg/kg, daily for five days followed by every other day) is reported as “substantial inhibition”, the “PC tumor growth (tumor volume, tumor weight)” value ([1]; i.p. injection (20 mg/kg/mouse), FIG. 4 legend) is reported as “anti-tumor effect” and the “OD (optical density) value, MTT” value (FOCUS cells [2]) is reported as “dose-dependently decreased”. For the same compound, the “specificity for the β-hydroxylase activity of ASPH” value (NIH-3T3 cells; FOCUS (express ASPH) versus NIH-3T3 (do not express ASPH)) was “highly specific; also recorded: more highly specific”, the “OD value of MTT” value (NIH-3T3 cells; NIH-3T3 cells not expressing ASPH) was “no effect; also recorded: resistant” and the “cell viability, inhibition rate” value (FOCUS) was 37.9%. The “cell viability, inhibition rate” value (Huh7) was 50%, the colony formation (FOCUS HCC cells) was “reduced colony formation; also recorded: strikingly inhibited” and the “colony formation, inhibition rate” value (FOCUS HCC cells; 3 weeks) was 36.8%. The “number and size of colonies in soft agar” value (FOCUS cells [3]) was “dose-dependent and highly significant reduction; also recorded: reduces”, the invasiveness (FOCUS cells [4]) was “significantly reduced; also recorded: significantly inhibited” and the “signs of wasting or other adverse effects relative to control mice” value [5] was “None of the MO-1-1100 treated mice showed signs”. The tolerability [5] was “tolerated well”, the “HCC subcutaneous xenograft growth” value ([5]; 5 consecutive days for 2 weeks and every other day thereafter) was “significantly reduced; also recorded: strikingly reduces” and the “tumor volumes reduced, average, compared to control mice” value ([5]; day 12 following treatment) was 31.7%.
